The values that follow come from ChEMBL document CHEMBL3779878, “Indomethacin based new triazolothiadiazine derivatives: Synthesis, evaluation of their anticancer effects on T98 human glioma cell line related to COX-2 inhibition and docking studies” (2016).

The test system of test [1] is T98. Kind of test: Effect on caspase 3 mRNA expression levels in human T98 cells at 50 to 100 uM by real-time PCR assay. It is filed as functional, cell-based.
In test [2] the test system is T98. Nature of the test: Induction of apoptosis in human T98 cells assessed as early apoptotic cells at 50 uM after 24 hrs by Annexin-V-FITC/propidium iodide staining based flow cytometry analysis (reference value: 1.1 +/- 0.3 %). It counts as functional.
Test [3] is described as follows: Antiproliferative activity against human T98 cells assessed as reduction in survival rate at 50 uM after 24 hrs by MTT assay relative to control. It is filed as functional.
For test [4], the system named is T98. Kind of test: Effect on caspase 8 mRNA expression levels in human T98 cells at 50 to 100 uM by real-time PCR assay. It counts as functional, cell-based.
Test [5] is described as follows: Antiproliferative activity against human T98 cells assessed as reduction in survival rate at 100 uM after 24 hrs by MTT assay relative to control. It counts as functional.
Test [6] relates to T98. Nature of the test: Effect on cytochrome-c mRNA expression levels in human T98 cells at 50 to 100 uM by real-time PCR assay. It is filed as functional, cell-based.
Test [7] can be described thus: Reduction in Cox-2 mRNA expression levels in human T98 cells by real-time PCR assay. It is filed as functional, cell-based.
The nature of test [8]: Induction of apoptosis in human T98 cells assessed as total death rate at 100 uM after 24 hrs by Annexin-V-FITC/propidium iodide staining based flow cytometry analysis (reference value: 3.8 %). It is filed as functional.
For test [9], the system named is T98. Nature of the test: Induction of apoptosis in human T98 cells assessed as alive cells at 50 uM after 24 hrs by Annexin-V-FITC/propidium iodide staining based flow cytometry analysis (reference value: 95 +/- 5.6 %). It counts as functional.
Test [10] relates to T98. Nature of the test: Antiproliferative activity against human T98 cells assessed as reduction in survival rate at 1 to 100 uM after 24 hrs by MTT assay. It is filed as functional, cell-based.
Test [11] deals with T98. Nature of the test: Induction of apoptosis in human T98 cells assessed as late apoptotic cells at 50 uM after 24 hrs by Annexin-V-FITC/propidium iodide staining based flow cytometry analysis (reference value: 2.7 +/- 1.4 %). It counts as functional.
Test [12] concerns T98. Kind of test: Effect on caspase 9 mRNA expression levels in human T98 cells at 50 to 100 uM by real-time PCR assay. It is filed as functional, cell-based.
Test [13] relates to T98. Nature of the test: Induction of apoptosis in human T98 cells assessed as early apoptotic cells at 100 uM after 24 hrs by Annexin-V-FITC/propidium iodide staining based flow cytometry analysis (reference value: 1.1 +/- 0.3 %). It is filed as functional.
Test [14] can be described thus: Induction of apoptosis in human T98 cells assessed as total death rate at 50 uM after 24 hrs by Annexin-V-FITC/propidium iodide staining based flow cytometry analysis (reference value: 3.8 %). It is filed as functional.
Test [15] deals with T98. Nature of the test: Induction of apoptosis in human T98 cells assessed as alive cells at 100 uM after 24 hrs by Annexin-V-FITC/propidium iodide staining based flow cytometry analysis (reference value: 95 +/- 5.6 %). It is filed as functional.
The test system of test [16] is T98. Kind of test: Induction of apoptosis in human T98 cells assessed as late apoptotic cells at 100 uM after 24 hrs by Annexin-V-FITC/propidium iodide staining based flow cytometry analysis (reference value: 2.7 +/- 1.4 %). It counts as functional.

Active and inactive are the calls of the source. The rule behind the calls is not given here.

On to `COc1ccc2c(c1)c(Cc1nnc3n1N=C(c1ccc(C)cc1)CS3)c(C)n2C(=O)c1ccc(Cl)cc1`, for which the result in test [1], in test [4], in test [6] and in test [12] was inactive. Also, the Activity in [2] is 11%; in test [3], 25%; in test [5], 40%; in [7] it was “Dose-dependent effect”; in test [8], 59%; in test [9] it was 39%. The Activity in test [11] is given as 38%; in test [13], 12%; in test [14], 49%; in test [15] it was 31%; in test [16], 47%. Besides, the result in [10] was Active.
